This data set can be described thus: wn = mass fraction of the nth substance listed. Conditions: 100 kPa, Liquid, Pycnometric method.

Molecules are shown by their SMILES. ± gives the expanded uncertainty stated by the source.

Among the data in the NIST ThermoML archive (doi:10.1021/acs.jced.7b00020) are mass density values, retold here.

Usually mass density stands for the mass of a sample divided by its volume. With `O=P([O-])(O)O.[K+]` [monopotassium phosphate] + O, the mass density (288.15 K, w1 = 0.1686) was 1126.4 ± 2.6 kg/m3 and the mass density (318.15 K, w1 = 0.2685) is listed as 1204.6 ± 2.8 kg/m3.

In the case of `O=P([O-])(O)O.[Na+]` [sodium dihydrogen phosphate] + O, the mass density by setting is: (288.15 K, w1 = 0.436) 1388.4 ± 3.4 kg/m3; (318.15 K, w1 = 0.5992) 1573.3 ± 3.8 kg/m3.
